Where a name gives a salt, the structure may show the parent alone.
What follows are compounds tested against catalytic domain of human PARP14 (Homo sapiens (Human), UniProt Q460N5) (assay: Enzymatic assay for inhibition of PARP14 (DELFIA, auto-modification with biotin-NAD)). Settings: auto-modification of PARP14 by biotin-NAD, 50 nM PARP14, 3 μM biotin-NAD.
Sequence of catalytic domain of human PARP14 (Q460N5 1611-1801): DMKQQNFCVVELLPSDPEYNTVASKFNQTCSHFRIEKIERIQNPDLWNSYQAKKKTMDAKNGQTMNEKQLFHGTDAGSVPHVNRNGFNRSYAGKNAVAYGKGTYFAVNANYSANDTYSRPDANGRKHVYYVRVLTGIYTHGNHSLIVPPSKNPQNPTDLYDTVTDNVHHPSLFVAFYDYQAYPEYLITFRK
Format: biochemical
Procedure, shortened: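 His-TEV-tagged PARP14 catalytic domain (50 nM) preincubated with compound 30 min at 25 °C, then auto-modified with 3 μM biotin-NAD for 3 h at 25 °C in HEPES pH 8 buffer with DTT. IC50 from 4-parameter fit, rucaparib and DMSO as controls.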
With `O=c1[nH]c(CSC2CCOCC2)nc2cc(NCCC3CCOCC3)ccc12` [Example 256, 7-((2-(Tetrahydro-2H-pyran-4-yl)ethyl)amino)-2-(((tetrahydro-2H-pyran-4-yl)thio)methyl)quinazolin-4(3H)-one] the IC50 was < 1000 nM. For `Cc1cc(NC2CCCC2)cc2nc(CSC3CCNCC3)[nH]c(=O)c12` [Example 257, 7-(Cyclopentylamino)-5-methyl-2-((piperidin-4-ylthio)methyl)quinazolin-4(3H)-one hydrochloride], the IC50 was < 1000 nM. `O=c1[nH]c(CSC2CCN(CC(F)F)CC2)nc2cc(NC3CCCC3)ccc12` [Example 258, 7-(Cyclopentylamino)-2-(((1-(2,2-difluoroethyl)piperidin-4-yl)thio)methyl)quinazolin-4(3H)-one] was tested, and the IC50 was < 1000 nM. In the case of `O=c1[nH]c(CSC2CCN(CCC(F)(F)F)CC2)nc2cc(NC3CCCC3)ccc12` [Example 259, 7-(Cyclopentylamino)-2-(((1-(3,3,3-trifluoropropyl)piperidin-4-yl)thio)methyl)quinazolin-4(3H)-one], the IC50 is reported as < 1000 nM. `O=c1[nH]c(CSC2CCNCC2)nc2cc(NCC3CCC3)cc(F)c12` [Example 261, 7-((Cyclobutylmethyl)amino)-5-fluoro-2-((piperidin-4-ylthio)methyl)quinazolin-4(3H)-one] was tested, and the IC50 was < 1000 nM. `O=c1[nH]c(CSC2CCNCC2)nc2cc(NCC3CC3(F)F)cc(F)c12` (centres unmarked) [Example 262, 7-(((2,2-Difluorocyclopropyl)methyl)amino)-5-fluoro-2-((piperidin-4-ylthio)methyl)quinazolin-4(3H)-one] was tested, and the IC50 was < 1000 nM. `O=c1[nH]c(CSC2CCN(CC(F)(F)F)CC2)nc2cc(NC3CCCC3)cc(F)c12` [Example 263, 7-(Cyclopentylamino)-5-fluoro-2-(((1-(2,2,2-trifluoroethyl)piperidin-4-yl)thio)methyl)quinazolin-4(3H)-one] was tested, and the IC50 was < 1000 nM. `CC(F)(F)CN1CCC(SCc2nc3cc(NC4CCCC4)ccc3c(=O)[nH]2)CC1` [Example 264, 7-(Cyclopentylamino)-2-(((1-(2,2-difluoropropyl)piperidin-4-yl)thio)methyl)quinazolin-4(3H)-one] was tested, and the IC50 was < 1000 nM. For `O=c1[nH]c(CSC2CCNCC2)nc2cc(NCC3CC3)cc(F)c12` [Example 265, 7-((Cyclopropylmethyl)amino)-5-fluoro-2-((piperidin-4-ylthio)methyl)quinazolin-4(3H)-one], the IC50 was < 1000 nM. In the case of `O=c1[nH]c(CSC2CCNCC2)nc2cc(NC3CCC(F)(F)C3)cc(F)c12` (centres unmarked) [Example 266, 7-((3,3-Difluorocyclopentyl)amino)-5-fluoro-2-((piperidin-4-ylthio)methyl)quinazolin-4(3H)-one], the IC50 is reported as < 1000 nM. With `CS(=O)(=O)N1CCC[C@@H](Nc2ccc3c(=O)[nH]c(CS[C@H]4CC[C@H](O)CC4)nc3c2)C1` [Example 267, 2-(((Trans-4-hydroxycyclohexyl)thio)methyl)-7-(((R)-1-(methylsulfonyl)piperidin-3-yl)amino)quinazolin-4(3H)-one] the IC50 was < 1000 nM. With `CC(=O)N1CCC(SCc2nc3cc(N[C@@H]4CCCN(S(C)(=O)=O)C4)ccc3c(=O)[nH]2)CC1` [Example 268, (R)-2-(((1-acetylpiperidin-4-yl)thio)methyl)-7-((1-(methylsulfonyl)piperidin-3-yl)amino)quinazolin-4(3H)-one] the IC50 was < 1000 nM. In the case of `CS(=O)(=O)N1CCC[C@@H](Nc2cc(F)c3c(=O)[nH]c(CS[C@H]4CC[C@H](O)CC4)nc3c2)C1` [Example 269, 5-Fluoro-2-(((trans-4-hydroxycyclohexyl)thio)methyl)-7-(((R)-1-(methylsulfonyl)piperidin-3-yl)amino)quinazolin-4(3H)-one], the IC50 is reported as < 1000 nM. With `O=c1[nH]c(CSC2CCS(=O)(=O)CC2)nc2cc(NC3CCCC3)cc(F)c12` [Example 270, 7-(Cyclopentylamino)-2-(((1,1-dioxidotetrahydro-2H-thiopyran-4-yl)thio)methyl)-5-fluoroquinazolin-4(3H)-one] the IC50 was < 1000 nM.
